Experimental data from the supplement of paper PMC8671470.

Columns and labels:
Settings in all cases: 72 h
MOLM-13 = experiment: cell viability (% survival relative to DMSO control, bortezomib = 0%); higher = less cytotoxic
In short: (§1)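 Fifteen myeloid leukaemia cell lines (10 AML, 5 CML) were seeded at a density titrated to the linear growth range into 384-well plates pre-printed with compounds at 1, 10, 100, 1000 or 10000 nM in duplicate. Plates were incubated for 72 h at 37 °C with 5% CO2. Viability was then read by CellTiter-Glo luminescence. Each value is percent survival averaged over the duplicates, with vehicle set to 100% and a 10 µM positive control to 0%.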

KCL-22 = experiment: as above
In short: as §1

KG-1 = experiment: as above
In short: as §1

HL-60 = experiment: area under dose-response curve (viability, 1 nM-10 uM) (fraction (0-1)); higher = more sensitive
In short: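 Four-parameter log-logistic fits in drc and PharmacoGx supplied area under the curve where it is given. Underlying viability came from CellTiter-Glo, normalised to DMSO and proteasome-inhibitor wells, with the proteasome inhibitor at 10 μM. HL-60 cells in RPMI 1640 plus 10% FBS had been rescreened against the full library at five tenfold concentrations of 1–10,000 nM, in duplicate on 384-well plates, with DMSO or 100 nM of one of three metabolic inhibitors, for 72 h at 37 °C, 5% CO2.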

[1] = tested on: myeloid leukemia patient primary cells Pat.5; experiment: cell viability (% survival relative to DMSO control); higher = less cytotoxic
In short: (§2)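 Seventy compounds were pre-printed on 384-well plates at five tenfold concentrations between 1 and 10,000 nM, in duplicate. Thawed mononuclear cells purified by Ficoll from AML or CML patients were added at 10,000 cells/well in RPMI 1640 with 10% FBS for 72 h. Viability by CellTiter-Glo was normalised to DMSO and 10 μM proteasome-inhibitor wells. Where stated, area under the curve was taken from log-logistic fits made with the drc and PharmacoGx R packages, each fit having four parameters.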

[2] = tested on: myeloid leukemia patient primary cells Pat.3; experiment: as above
In short: as §2

[3] = tested on: myeloid leukemia patient primary cells Pat.6; experiment: as above
In short: as §2

[4] = tested on: myeloid leukemia patient primary cells Pat.15; experiment: as above
In short: as §2

[5] = tested on: myeloid leukemia patient primary cells Pat.12; experiment: as above
In short: as §2

[6] = tested on: myeloid leukemia patient primary cells Pat.7; experiment: as above
In short: as §2

[7] = tested on: myeloid leukemia patient primary cells Pat.10; experiment: as above
In short: as §2

[8] = tested on: myeloid leukemia patient primary cells Pat.4; experiment: as above
In short: as §2

[9] = tested on: myeloid leukemia patient primary cells Pat.2; experiment: as above
In short: as §2

[10] = tested on: myeloid leukemia patient primary cells Pat.11; experiment: as above
In short: as §2

[11] = tested on: myeloid leukemia patient primary cells Pat.8; experiment: as above
In short: as §2

[12] = tested on: myeloid leukemia patient primary cells Pat.13; experiment: as above
In short: as §2

[13] = tested on: myeloid leukemia patient primary cells Pat.14; experiment: as above
In short: as §2

[14] = tested on: myeloid leukemia patient primary cells Pat.1; experiment: as above
In short: as §2

COC(=O)[C@]12CCC(C)(C)C[C@H]1[C@H]1C(=O)C=C3[C@@]4(C)C=C(C#N)C(=O)C(C)(C)[C@@H]4CC[C@@]3(C)[C@]1(C)CC2 [Bardoxolone methyl]
Settings	area under dose-response curve, co-treatment: AZD3965 100 nM	area under dose-response curve, co-treatment: DMSO vehicle	area under dose-response curve, co-treatment: GSK2194069 100 nM	area under dose-response curve, co-treatment: pictilisib 100 nM	cell viability, 1 nM [%]	cell viability, 10 nM [%]	cell viability, 100 nM [%]	cell viability, 1000 nM [%]	cell viability, 10000 nM [%]
HL-60	0.0976	< 0.0301	0.0723	0.144	–	–	–	–	–
KCL-22	–	–	–	–	100	107	112	56.2	0.0358
KG-1	–	–	–	–	96.6	101	117	53.5	1.37
MOLM-13	–	–	–	–	107	81.7	118	91.9	87.5
[1]	–	–	–	–	65.9	47.9	5.56	6.86	7.88
[2]	–	–	–	–	83.7	74.8	10.9	0.308	< 0
[3]	–	–	–	–	99.8	81.4	75	17.6	72.1
[4]	–	–	–	–	95.2	79.4	21.8	69	0.4
[5]	–	–	–	–	97.3	92.7	77.3	95.8	52.6
[6]	–	–	–	–	97.6	67.2	2.85	< 0	< 0
[7]	–	–	–	–	82.4	56	11.8	2.87	91.9
[8]	–	–	–	–	84.5	96.4	33.3	70	1.48
[9]	–	–	–	–	> 100	93.5	78.5	34.7	77.6
[10]	–	–	–	–	> 100	91.2	87.7	> 100	7.29
[11]	–	–	–	–	67.7	97.5	78.5	9.52	61.5
[12]	–	–	–	–	86.5	80.8	57.3	4.17	31.2
[13]	–	–	–	–	73.4	72.5	47	2.03	25.8
[14]	–	–	–	–	85.8	68.1	61.9	61.3	2.44
